Measurements taken from patent US10206394B2, “Herbicidal compounds” (Syngenta Participations AG, priority 2014, dated 2019).
Where two headings read alike, the source gives them in different places.

Columns and labels:
Assay in all cases: Glasshouse assay for herbicidal activity (pre- and post-emergence), percentage phytotoxicity
Assay type in all cases: in vivo
[1] = system: Alopecurus myosuroides (ALOMY); conditions: Alopecurus myosuroides
Procedure, shortened: (§1)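 Sow seed in standard soil in pots; apply test herbicide after 1 day (PRE) or about 12 days (POST). Grow on in the glasshouse, watering twice daily, cool-season species at 20/16 °C and warm-season at 24/18 °C. Score visible damage (0–100%) at 20 or 15 DAA respectively.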

[2] = system: Lolium perenne (LOLPE); conditions: Lolium perenne
Procedure, shortened: as §1

[3] = system: Avena fatua (AVEFA); conditions: Avena fatua
Procedure, shortened: as §1

[4] = system: Echinochloa crus-galli (ECHCG); conditions: Echinochloa crus-galli
Procedure, shortened: as §1

[5] = post-emergence, 360 h, 250 g/ha, post-emergence, 15 DAA, visual assessment (100%=total damage, 0%=no damage), read-out: Post-emergence herbicidal activity (percentage phytotoxicity) ALOMY POST
[6] = pre-emergence, 480 h, 250 g/ha, pre-emergence, 20 DAA, visual assessment (100%=total damage, 0%=no damage), read-out: Pre-emergence herbicidal activity (percentage phytotoxicity) ALOMY PRE
[7] = post-emergence, 360 h, 250 g/ha, post-emergence, 15 DAA, visual assessment (100%=total damage, 0%=no damage), read-out: Post-emergence herbicidal activity (percentage phytotoxicity) LOLPE POST
[8] = pre-emergence, 480 h, 250 g/ha, pre-emergence, 20 DAA, visual assessment (100%=total damage, 0%=no damage), read-out: Pre-emergence herbicidal activity (percentage phytotoxicity) LOLPE PRE
[9] = post-emergence, 360 h, 250 g/ha, post-emergence, 15 DAA, visual assessment (100%=total damage, 0%=no damage), read-out: Post-emergence herbicidal activity (percentage phytotoxicity) AVEFA POST
[10] = pre-emergence, 480 h, 250 g/ha, pre-emergence, 20 DAA, visual assessment (100%=total damage, 0%=no damage), read-out: Pre-emergence herbicidal activity (percentage phytotoxicity) AVEFA PRE
[11] = post-emergence, 360 h, 250 g/ha, post-emergence, 15 DAA, visual assessment (100%=total damage, 0%=no damage), read-out: Post-emergence herbicidal activity (percentage phytotoxicity) ECHCG POST
[12] = pre-emergence, 480 h, 250 g/ha, pre-emergence, 20 DAA, visual assessment (100%=total damage, 0%=no damage), read-out: Pre-emergence herbicidal activity (percentage phytotoxicity) ECHCG PRE
[13] = post-emergence, 360 h, Rate 250 g/ha, post-emergence, assessed visually 15 DAA, 100%=total damage, 0%=no damage, read-out: Post-emergence herbicidal activity (percentage phytotoxicity) ALOMY POST
[14] = pre-emergence, 480 h, Rate 250 g/ha, pre-emergence, assessed visually 20 DAA, 100%=total damage, 0%=no damage, read-out: Pre-emergence herbicidal activity (percentage phytotoxicity) ALOMY PRE
[15] = post-emergence, 360 h, Rate 250 g/ha, post-emergence, assessed visually 15 DAA, 100%=total damage, 0%=no damage, read-out: Post-emergence herbicidal activity (percentage phytotoxicity) LOLPE POST
[16] = pre-emergence, 480 h, Rate 250 g/ha, pre-emergence, assessed visually 20 DAA, 100%=total damage, 0%=no damage, read-out: Pre-emergence herbicidal activity (percentage phytotoxicity) LOLPE PRE
[17] = post-emergence, 360 h, Rate 250 g/ha, post-emergence, assessed visually 15 DAA, 100%=total damage, 0%=no damage, read-out: Post-emergence herbicidal activity (percentage phytotoxicity) AVEFA POST
[18] = pre-emergence, 480 h, Rate 250 g/ha, pre-emergence, assessed visually 20 DAA, 100%=total damage, 0%=no damage, read-out: Pre-emergence herbicidal activity (percentage phytotoxicity) AVEFA PRE
[19] = post-emergence, 360 h, Rate 250 g/ha, post-emergence, assessed visually 15 DAA, 100%=total damage, 0%=no damage, read-out: Post-emergence herbicidal activity (percentage phytotoxicity) ECHCG POST
[20] = pre-emergence, 480 h, Rate 250 g/ha, pre-emergence, assessed visually 20 DAA, 100%=total damage, 0%=no damage, read-out: Pre-emergence herbicidal activity (percentage phytotoxicity) ECHCG PRE
[21] = post-emergence, 360 h, POST-emergence, rate 250 g/ha, visual score 15 DAA (100%=total damage, 0%=no damage), read-out: Post-emergence herbicidal activity (percentage phytotoxicity) ALOMY POST
[22] = pre-emergence, 480 h, PRE-emergence, rate 250 g/ha, visual score 20 DAA (100%=total damage, 0%=no damage), read-out: Pre-emergence herbicidal activity (percentage phytotoxicity) ALOMY PRE
[23] = post-emergence, 360 h, POST-emergence, rate 250 g/ha, visual score 15 DAA (100%=total damage, 0%=no damage), read-out: Post-emergence herbicidal activity (percentage phytotoxicity) LOLPE POST
[24] = pre-emergence, 480 h, PRE-emergence, rate 250 g/ha, visual score 20 DAA (100%=total damage, 0%=no damage), read-out: Pre-emergence herbicidal activity (percentage phytotoxicity) LOLPE PRE
[25] = post-emergence, 360 h, POST-emergence, rate 250 g/ha, visual score 15 DAA (100%=total damage, 0%=no damage), read-out: Post-emergence herbicidal activity (percentage phytotoxicity) AVEFA POST
[26] = pre-emergence, 480 h, PRE-emergence, rate 250 g/ha, visual score 20 DAA (100%=total damage, 0%=no damage), read-out: Pre-emergence herbicidal activity (percentage phytotoxicity) AVEFA PRE
[27] = post-emergence, 360 h, POST-emergence, rate 250 g/ha, visual score 15 DAA (100%=total damage, 0%=no damage), read-out: Post-emergence herbicidal activity (percentage phytotoxicity) ECHCG POST
[28] = pre-emergence, 480 h, PRE-emergence, rate 250 g/ha, visual score 20 DAA (100%=total damage, 0%=no damage), read-out: Pre-emergence herbicidal activity (percentage phytotoxicity) ECHCG PRE

SMILES	pest or weed control at 250 g/ha [1, 5] [%]	pest or weed control at 250 g/ha [1, 6] [%]	pest or weed control at 250 g/ha [2, 7] [%]	pest or weed control at 250 g/ha [2, 8] [%]	pest or weed control at 250 g/ha [3, 9] [%]	pest or weed control at 250 g/ha [3, 10] [%]	pest or weed control at 250 g/ha [4, 11] [%]	pest or weed control at 250 g/ha [4, 12] [%]	pest or weed control at 250 g/ha [1, 21] [%]	pest or weed control at 250 g/ha [1, 22] [%]	pest or weed control at 250 g/ha [2, 23] [%]	pest or weed control at 250 g/ha [2, 24] [%]	pest or weed control at 250 g/ha [3, 25] [%]	pest or weed control at 250 g/ha [3, 26] [%]	pest or weed control at 250 g/ha [4, 27] [%]	pest or weed control at 250 g/ha [4, 28] [%]	other results
CCC(C)NC(=O)CC1CC(=O)C(c2c(C)cc(Br)cc2C)C1=O (centres unmarked) [Compound B120]	80	80	90	90	90	70	80	80									
Cc1cnc(CNC(=O)CC2CC(=O)C(c3c(C)cc(-c4ncc(F)cn4)cc3C)C2=O)cn1 (centres unmarked) [Compound A157]																	pest or weed control at 250 g/ha [1, 13]: 80%; pest or weed control at 250 g/ha [1, 14]: 60%; pest or weed control at 250 g/ha [2, 15]: 90%; pest or weed control at 250 g/ha [2, 16]: 70%; pest or weed control at 250 g/ha [3, 17]: 90%; pest or weed control at 250 g/ha [3, 18]: 70%; pest or weed control at 250 g/ha [4, 19]: 100%; pest or weed control at 250 g/ha [4, 20]: 90%
CCNC(=O)CC1CC(=O)C(c2c(C)cc(-n3cc(Cl)cn3)cc2C)C1=O (centres unmarked) [Compound B307]									90	100	90	100	100	100	100	100	
Cc1cc(Br)cc(C)c1C1C(=O)CC(CC(=O)NCC2CC2(F)F)C1=O (centres unmarked) [Compound B198]									100	90	100	70	100	60	100	80	
Cc1cc(Br)cc(C)c1C1C(=O)CC(CC(=O)NCC2CC2)C1=O (centres unmarked) [Compound B122]	100	80	100	90	100	80	100	70									
C#CCN(C)C(=O)CC1CC(=O)C(c2c(C)cc(OCC(F)(F)F)cc2CC)C1=O (centres unmarked) [Compound B222]									100	100	100	100	100	90	100	100	
Cc1cc(C)c(C2CC(=O)C(CC(=O)NC(C)CC(C)C)C2=O)c(C)c1 (centres unmarked) [Compound B25]	80	90	80	90	80	70	90	90									
CC#Cc1cc(C)c(C2C(=O)CC(CC(=O)NCC3CC3)C2=O)c(C)c1 (centres unmarked) [Compound A63]																	pest or weed control at 250 g/ha [1, 13]: 100%; pest or weed control at 250 g/ha [1, 14]: 100%; pest or weed control at 250 g/ha [2, 15]: 90%; pest or weed control at 250 g/ha [2, 16]: 100%; pest or weed control at 250 g/ha [3, 17]: 100%; pest or weed control at 250 g/ha [3, 18]: 90%; pest or weed control at 250 g/ha [4, 19]: 100%; pest or weed control at 250 g/ha [4, 20]: 100%
C/C=C/CNC(=O)CC1CC(=O)C(c2c(C)cc(Br)cc2C)C1=O (centres unmarked) [Compound B177]									80	90	80	90	80	30	90	90	
Cc1cc(C)c(C2C(=O)CC(CC(=O)NCc3cccc([N+](=O)[O-])c3)C2=O)c(C)c1 (centres unmarked) [Compound B20]	70	80	40	70	80	90	90	90									
Cc1cc(-c2ncc(F)cc2F)cc(C)c1C1C(=O)CC(CC(=O)NCc2cccc(F)c2)C1=O (centres unmarked) [Compound B70]	100	80	100	90	100	80	100	100									
Cc1cc(-c2ncc(Cl)cc2F)cc(C)c1C1C(=O)CC(CC(=O)NCc2cncs2)C1=O (centres unmarked) [Compound A129]																	pest or weed control at 250 g/ha [1, 13]: 50%; pest or weed control at 250 g/ha [2, 15]: 20%; pest or weed control at 250 g/ha [3, 17]: 70%; pest or weed control at 250 g/ha [4, 19]: 90%
C=CCNC(=O)CC1CC(=O)C(c2c(C)cc(OCC(F)(F)F)cc2C)C1=O (centres unmarked) [Compound B209]									90	100	80	90	80	80	100	100	
Cc1cc(-c2ncc(F)cc2F)cc(C)c1C1C(=O)C[C@@H](CC(=O)NC(C)(C)C)C1=O (some centres unmarked) [Compound B51]	100	90	100	100	100	80	100	100									
CCN(C)C(=O)CC1CC(=O)C(c2c(C)cc(-n3cc(Cl)cn3)cc2C)C1=O (centres unmarked) [Compound B228]									100	100	100	100	100	90	100	90	
